The values below come from PMC3097170 (The Journal of pharmacology and experimental therapeutics, 2011).

Several values for one entry are separate records, joined by “and”; a condition that tells them apart may be missing. Equal values may be shown once. Where a name gives a salt, the structure may show the parent alone. Read-outs that look alike come from different tables or passages of the source. A value given as a limit tells only on which side of the number the result lay.

Test [1] concerns the target T1, MOR (Mus musculus, UniProt P42866).
The target in test [2] is T2, DOR (Mus musculus, UniProt P32300).
T2 sequence (P32300 whole entry): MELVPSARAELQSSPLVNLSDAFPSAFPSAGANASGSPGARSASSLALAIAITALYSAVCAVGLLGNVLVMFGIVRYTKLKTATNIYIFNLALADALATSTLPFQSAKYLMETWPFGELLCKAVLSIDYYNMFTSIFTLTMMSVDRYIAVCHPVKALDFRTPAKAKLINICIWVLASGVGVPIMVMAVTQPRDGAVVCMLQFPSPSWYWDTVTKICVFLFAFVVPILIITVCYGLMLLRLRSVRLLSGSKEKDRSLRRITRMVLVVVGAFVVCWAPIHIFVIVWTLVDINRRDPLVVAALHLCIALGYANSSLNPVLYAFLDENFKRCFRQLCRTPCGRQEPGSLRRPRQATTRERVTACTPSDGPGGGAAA
Test [3] addresses T3, DOR/MOR (Mus musculus, UniProt P32300+P42866).
In test [4] the target is T1, MOR. The source holds these as a separate data set.
In test [5] the target is T2, DOR. The source holds these as a separate data set.
A further test concerns the target DOR homomers (Mus musculus, UniProt P32300). The format is cell-based, murine.
The target of the next test is MOR homomers (Mus musculus, UniProt P42866). The format is cell-based, murine. Conditions: DOR/MOR co-expressing cells.
Chain of MOR homomers (P42866 whole entry): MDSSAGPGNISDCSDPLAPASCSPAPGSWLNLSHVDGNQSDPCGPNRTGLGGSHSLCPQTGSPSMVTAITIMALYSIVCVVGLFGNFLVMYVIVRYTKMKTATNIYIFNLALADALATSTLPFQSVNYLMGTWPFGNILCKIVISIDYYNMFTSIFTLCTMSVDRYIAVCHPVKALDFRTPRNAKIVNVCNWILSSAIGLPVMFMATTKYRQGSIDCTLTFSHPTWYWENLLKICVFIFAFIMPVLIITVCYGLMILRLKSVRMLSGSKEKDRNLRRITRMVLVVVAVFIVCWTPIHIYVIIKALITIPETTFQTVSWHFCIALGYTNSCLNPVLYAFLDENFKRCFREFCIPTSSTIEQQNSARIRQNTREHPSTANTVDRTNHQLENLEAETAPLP
In a further test the target is DOR/MOR heteromers (Mus musculus, UniProt P32300+P42866). Type of test: cell-based, murine.
Chain of DOR/MOR heteromers (P42866 whole entry): as above
Chain of DOR/MOR heteromers (P32300 whole entry): as the sequence (P32300 whole entry) above
For test [6], the target named is MOR. Conditions: cited from earlier work.
For test [7], the target named is T3, DOR/MOR. Kind of test: cell-based.
The subject of test [8] is DOR. Conditions: cited from earlier work.
Test [9] has as its target T2, DOR. The test can be described thus: cell-based. Conditions: Log IC50.

T3 sequence (P42866 whole entry): as the sequence (P42866 whole entry) above
T3 sequence (P32300 whole entry): as the sequence (P32300 whole entry) above
T1 sequence (P42866 whole entry): as the sequence (P42866 whole entry) above
Chain of DOR homomers (P32300 whole entry): as the sequence (P32300 whole entry) above

As to `C[C@@H](NC(=O)[C@@H](N)Cc1ccc(O)cc1)C(=O)NCC(=O)N(C)[C@@H](Cc1ccccc1)C(=O)NCCO` [DAMGO, [D-Ala2, NMe-Phe4, Gly-ol5]-enkephalin], at MOR [1] (1 μM agonist, 30 minutes, cells expressing MOR alone), the “agonist-induced endocytosis of MOR” value is listed as “endocytosed”. Besides, the entries for the “Emax (RFU)” value on DOR [2], at DOR/MOR [3] and on MOR [4] were 582 ± 55 RFU, 956 ± 56 RFU and 735 ± 51 RFU, respectively. For the same compound, the “agonist-induced endocytosis of DOR” value on DOR [5] was “not endocytosed”. The “agonist-induced endocytosis of DOR homomers” value at DOR homomers is reported as “but not DOR homomers”. In addition, at MOR homomers (1 μM, 30 minutes), the “agonist-induced endocytosis of MOR homomers” value is recorded as “promoted endocytosis”. Further, on DOR/MOR heteromers, the “agonist-induced endocytosis of DOR/MOR heteromers” value was “promoted endocytosis”.
What is called Ki is a dissociation constant, usually derived from enzyme kinetics or from competition with a known ligand. For orientation: IC50 means the midpoint of a concentration-inhibition curve. Low values mean greater potency, high ones weaker potency. Turning to `Oc1ccc2c3c1O[C@H]1c4oc5ccccc5c4C[C@@]4(O)[C@@H](C2)N(CC2CC2)CC[C@]314` [NTB, naltriben mesylate], the “inhibition of MOR endocytosis in cells expressing only MOR” value on MOR [1] is “did not block endocytosis”. In addition, the Ki on MOR [6] (read-out: Ki for MOR, ref Raynor et al., 1994, Kim et al., 2001) was 12 nM; on DOR [8] (read-out: Ki for DOR, ref Raynor et al., 1994, Kim et al., 2001), 0.013 nM. The IC50 at DOR/MOR [7] was 251 nM; against DOR [9], 158 nM and 126 nM. Moreover, the “% of maximal inhibition” value at DOR [2] is 87 ± 2% and 87 ± 12%; at DOR/MOR [3] it was 34 ±7 ^### % and 31 ± 5 %. The “block of DPDPE signaling” value on DOR [2] and on DOR/MOR [3] was “effectively blocked signaling” in each case. The “inhibition of DAMGO-mediated signaling” value at MOR [4] is listed as 52 ± 4%. Further, the “inhibition of methadone-mediated signaling” value on MOR [4] is given as 63 ± 10%. The “inhibition of DOR endocytosis in response to DPDPE” value on DOR [5] is listed as “did block endocytosis”. Also, the “inhibition of methadone- and DAMGO-induced endocytosis of MOR homomers” value at MOR homomers (NTB 0.05 μM to 1 μM, 20 minutes) was “inhibited by the highest concentration”. For the same compound, the “inhibition of methadone- and DAMGO-induced endocytosis of DOR/MOR heteromers” value at DOR/MOR heteromers is reported as “significantly inhibited”. Further, the “fold higher affinity for DOR over MOR” value in the test on DOR [8] (DOR over MOR, ref Raynor et al., 1994, Kim et al., 2001) is listed as > 100 fold.
As to `Oc1ccc2c3c1O[C@H]1c4[nH]c5ccccc5c4C[C@@]4(O)[C@@H](C2)N(CC2CC2)CC[C@]314` [NTI, Naltrindole hydrochloride], the Ki is 64 nM at MOR [6] (read-out: Ki for MOR, reference not given) and 0.02 nM on DOR [8] (read-out: Ki for DOR, reference not given). Moreover, the IC50 is 126 nM against DOR/MOR [7]; 63.1 nM and 251 nM against DOR [9]. Also, the “% of maximal inhibition” value at DOR [2] was 81 ± 3% and 94 ± 1%; at DOR/MOR [3], 79 ± 6% and 48 ± 6%. Further, the “Log IC50” value at DOR/MOR [3] is on record as −6.9 ± 0.1. Further, at DOR/MOR heteromers, the “inhibition of methadone- and DAMGO-induced endocytosis of DOR/MOR heteromers” value was “significantly and selectively inhibited”.
